Laboratory results published in patent publication US8969524B2, “FVIII peptides for immune tolerance induction and immunodiagnostics” (Baxter International Inc., priority 2010, dated 2015).

The sequences below were run on FVIII-specific T cell hybridomas (peptides presented by HLA-DRB1*1501) (assay: Peptide specificity of FVIII-specific T cell hybridomas (IL-2 release)). Details: during Factor VIII replacement therapy or connected with acquired hemophilia.
Assay type: cell-based, mouse
Source text: To better mimic the human MHC class II molecule for identifying FVIII peptides, a mouse model was developed for hemophilia A with a chimeric MHC class II molecule carrying a human HLA-DRB1*1501 specific binding site. This mouse was backcrossed to a mouse carrying a complete knock out of all murine MHC class II genes (Reipert et al., J. Thromb. Haemost. 7 Suppl. 1:92-97 (2009)). In this new transgenic mouse model, all CD4^+ T cell responses are driven by the human MHC class II molecule. This mouse model was used to identify FVIII peptides presented by HLA-DRB1*1501 that drive anti-FVIII immune responses in these mice.
Hemophilic HLA-DRB15 E17 mice: HLA-DRB1*1501^+/− E17^−/− mice as described in Reipert et al., J. Thromb. Haemost. 7 Suppl. 1:92-97 (2009). Mice were all male and aged 8 to 12 weeks at the beginning of the experiment.
Immunization with human recombinant FVIII: HLA-DRB1*1501^+/− E17^−/− mice received between 4 and 8 intravenous or subcutaneous doses of 0.2 μg or 1 μg human rFVIII at weekly intervals. rFVIII was diluted in the original formulation buffer or Dulbecco phosphate buffered saline containing calcium and magnesium (DPBS; Sigma Aldrich, St. Louis, Mo., USA).
Cell preparation: Spleens were obtained 3 to 7 days after the last immunization with rFVIII. Spleen cells were minced and passed through a 70 μm cell strainer (Becton Dickinson, Franklin Lakes, N.J.). Single cells were collected in culture medium: RPMI 1640 medium (Gibco, Invitrogen, Life Technologies, Carlsbad, Calif.) supplemented with 10% preselected fetal calf serum (FCS; Hyclone, Logan, Utah), 2 mM L-glutamine, 100 U/mL penicillin/streptomycin (both from Gibco), and 5×10^−5 M mercaptoethanol (Sigma-Aldrich). Erythrocytes were lysed using hypotonic buffer (pH 7.2) composed of 0.15 M ammonium chloride, 10 mM potassium bicarbonate (both from Merck, Darmstadt, Germany) and 0.1 mM ethylene-diaminetetraacetic acid (Sigma-Aldrich). Cells were washed and counted using a Coulter Counter Z1. […]

Sequence	involvement in the immune response mounted against FVIII protein
AWPKMHTVNGYVNRSLPGLIG (listed as Homo sapiens) [FVIII^246-266]	involved in the immune response
QANRSPLPIAKVSSFPSIRPIYLT (listed as Homo sapiens) [FVIII^1401-1424]	involved in the immune response
TVVITLKNMASHPVSLHAVGV (listed as Homo sapiens) [FVIII^102-122]	involved in the immune response
